The test system of this test is MYCN. Put plainly: MYCN protein levels, Simple Western. Type of test: cell-based, human. The conditions noted are these: for MYCN codepletion: IMR-32, 500 nM, 24h postexposure; for DC50: read-out: MYCN DC50 24h. Here is the method:
Cells were seeded in T-25 flasks at different densities ranging from 1 to 2 million cells per flask and allowed to adhere for 1–2 days. In experiments involving compound treatment, this was done by medium replacement containing the compound(s) of interest in their corresponding concentrations. In competition binding experiments, cells were first pretreated with an excess of MK-5108, thalidomide or MG-132 for 1 h by shaking gently at room temperature prior to addition of SK4454 or SK5527. All samples were normalized to contain the same percentage of DMSO as the negative DMSO controls. Cells were harvested on ice at their respective time points by scraping, washed with ice-cold PBS to collect remaining cells, and centrifuged (2500 rpm, 4 °C). A second washing and centrifugation step was performed prior to collection of the final cell pellets which were then snap-frozen in liquid nitrogen and kept frozen at −80 °C until further processing. Lysis of cell pellets occurred in cold RIPA buffer (0.5% w/v Sodium Deoxycholate, 150 mM NaCl, 50 mM TrisHCl pH 7.5, 0.1% w/v SDS, 1% w/v NP-40) supplemented with protease and phosphatase inhibitors (Roche, #11836145001, #04906845001) by rotating gently at 4 °C for 1h, followed by a centrifugation step for 10 min (10,000 rpm, 4 °C). The supernatant was collected and concentrations of the obtained protein lysates were measured using the Pierce BCA Protein Assay Kit (Thermo Fisher Scientific, #23227).
Simple Western analyses were performed with the Wes instrument (Bio-Techne) using the 12–230 kDa Wes Separation module and the EZ standard pack reagent 1 (Biotechne, #SM-W001, #PS-ST01EZ-8) following the manufacturer’s protocol. Protein lysates were loaded at 0.8 μg/μL under denaturing conditions (0.2 μg/μL for MYCN detection). Chemiluminescence peaks were generated by the Compass Software (Bio-Techne) and the area under the peaks calculated using the Gaussian fit method. Per lane, quantified data were always normalized to that of the loading control (Vinculin) prior to calculating fold changes relative to the negative DMSO control. Mean fold changes are calculated from 3 individual experiments. A list of the primary and secondary antibodies used can be found in the Supporting Information (Supplementary Table S7).
Graphs were generated using GraphPad Prism Software (version 10.1.2) or RStudio (R-4.3.2). All dose–response curves were computed on GraphPad Prism using the Variable Slope (four parameters) equation. Absolute half-maximal degradation (DC50), growth inhibitory (GI50) and enzymatic inhibitory (IC50) concentrations, as well as inhibition constants (Ki) were derived from dose–response curves via interpolation. Statistical tests were performed on GraphPad Prism and detailed in the figure legends. Unless otherwise stated, “n” in the figure legends indicates the number of independent experiments conducted at different times.

Read-outs that look alike come from different tables or passages of the source.

These results are taken from PMC12670405, “Second-Generation AURKA-Targeting PROTACs: Structural Optimization toward in Vivo Degradation in Neuroblastoma” (Journal of Medicinal Chemistry, 2025).

`Cc1cc(Nc2ccc(F)c(CC3(C(=O)N4CCC(CN5CCN(c6ccc(N7CCC(=O)NC7=O)cn6)CC5)CC4)CCN(Cc4cccc(Cl)c4F)CC3)n2)n[nH]1` [SK4454]: the MYCN codepletion is reported as ~50%. Moreover, the DC50 (IMR-32) is 117 nM. For the same molecule, the DC50 (NGP) was 1360 nM. The DC50 (SJNB-8) was determined as 1390 nM.
The like results for `Cc1cc(Nc2ccc(F)c(CC3(C(=O)N4CCC(F)(CN5CCN(c6ccc(N7CCC(=O)NC7=O)cn6)CC5)CC4)CCN(Cc4cccc(Cl)c4F)CC3)n2)n[nH]1` [SK5527] were, in that order, ~50%, 236 nM, 89 nM and 772 nM.
